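96-well plates; 48 h exposure; 5 concentrations. Endpoints by linear interpolation between flanking doses. Not reached: highest tested concentration assigned. Abbreviation: GI50, concentration required for 50% inhibition of growth.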 The source made the active and inactive calls. Rule as the data show it: active = GI50 up to about 1.1 µM and inactive = higher.
What was measured:
Assay in all cases: growth of human tumour cells (NCI), 48 h
UO-31 = system: UO-31
CCRF-CEM = system: CCRF-CEM
SNB-19 = system: SNB-19
A498 = system: A498
TK-10 = system: TK-10
HOP-92 = system: HOP-92
SK-MEL-5 = system: SK-MEL-5
SK-OV-3 = system: SK-OV-3
A549 = system: A549
SNB-75 = system: SNB-75
BT-549 = system: BT-549
NCI-H23 = system: NCI-H23
COLO 205 = system: COLO 205
M14 = system: M14
MDA-N = system: MDA-N
EKVX = system: EKVX
K562 = system: K562
PC-3 = system: PC-3
IGROV-1 = system: IGROV-1

Structure (SMILES)	GI50 (UO-31)	GI50 (CCRF-CEM)	GI50 (SNB-19)	GI50 (A498)	GI50 (TK-10)	GI50 (HOP-92)	GI50 (SK-MEL-5)	GI50 (SK-OV-3)	GI50 (A549)	GI50 (SNB-75)	GI50 (BT-549)	GI50 (NCI-H23)	GI50 (COLO 205)	GI50 (M14)	GI50 (MDA-N)	GI50 (EKVX)	GI50 (K562)	GI50 (PC-3)	GI50 (IGROV-1)
Nc1ccc(-c2nc3ccccc3s2)cc1C(F)(F)F	14.7 µM (inactive)	21.1 µM (inactive)	17.4 µM (inactive)	17.6 µM (inactive)	13.1 µM (inactive)	16.3 µM (inactive)	15.5 µM (inactive)	16.6 µM (inactive)	17.8 µM (inactive)	14.5 µM (inactive)	13.2 µM (inactive)	13.5 µM (inactive)	18.1 µM (inactive)	14.9 µM (inactive)	13.6 µM (inactive)	11 µM (inactive)	20 µM (inactive)	15.7 µM (inactive)	
CCCC[S+]([O-])CCC(N)C(=O)O (centres undefined)	> 100 µM (inactive)	> 100 µM (inactive)	> 100 µM (inactive)	> 100 µM (inactive)	> 100 µM (inactive)		> 100 µM (inactive)	> 100 µM (inactive)	> 100 µM (inactive)	> 100 µM (inactive)	> 100 µM (inactive)	> 100 µM (inactive)	> 100 µM (inactive)	> 100 µM (inactive)	> 100 µM (inactive)	> 100 µM (inactive)	> 100 µM (inactive)	> 100 µM (inactive)	> 100 µM (inactive)
C#CCOC(=O)[C@@H](C)c1ccc2cc(OC)ccc2c1	94 µM (inactive)	31.1 µM (inactive)	> 100 µM (inactive)	> 100 µM (inactive)	> 100 µM (inactive)	79.6 µM (inactive)	40.9 µM (inactive)	> 100 µM (inactive)		34.3 µM (inactive)	54.5 µM (inactive)	63.5 µM (inactive)	> 100 µM (inactive)	> 100 µM (inactive)	> 100 µM (inactive)	66.2 µM (inactive)	44.8 µM (inactive)	82.6 µM (inactive)	> 100 µM (inactive)
O=C(NCCCCCCNC(=O)c1cccc2ccccc12)Nc1cccc2ccccc12	45.7 µM (inactive)	> 100 µM (inactive)	> 100 µM (inactive)	> 100 µM (inactive)	> 100 µM (inactive)	> 100 µM (inactive)	> 100 µM (inactive)		> 100 µM (inactive)	> 100 µM (inactive)	> 100 µM (inactive)	> 100 µM (inactive)	> 100 µM (inactive)	> 100 µM (inactive)	> 100 µM (inactive)	> 100 µM (inactive)	> 100 µM (inactive)	> 100 µM (inactive)	> 100 µM (inactive)
O=C1Nc2ccccc2/C1=N/Nc1ccc([N+](=O)[O-])cc1	13.3 µM (inactive)	22.4 µM (inactive)	32.8 µM (inactive)	15.2 µM (inactive)	24 µM (inactive)		35.6 µM (inactive)	24.2 µM (inactive)	24.4 µM (inactive)	12.3 µM (inactive)	16.5 µM (inactive)	21.5 µM (inactive)	93.5 µM (inactive)	30.8 µM (inactive)	68.5 µM (inactive)	8.93 µM (inactive)	17 µM (inactive)	27.4 µM (inactive)	14.6 µM (inactive)
CC(=O)NNc1nc(C)c(C(/C=C/c2ccc(NC(C)=O)cc2)=N/NS(=O)(=O)c2ccc(C)cc2)s1	> 100 µM (inactive)	> 100 µM (inactive)	> 100 µM (inactive)	> 100 µM (inactive)	> 100 µM (inactive)	> 100 µM (inactive)	> 100 µM (inactive)	> 100 µM (inactive)	> 100 µM (inactive)	> 100 µM (inactive)	> 100 µM (inactive)	> 100 µM (inactive)	> 100 µM (inactive)	> 100 µM (inactive)	> 100 µM (inactive)	> 100 µM (inactive)		> 100 µM (inactive)	> 100 µM (inactive)
Oc1ccccc1-c1n[nH]c(-c2ccccc2O)n1	5.25 µM (inactive)	1.47 µM (inactive)		8.51 µM (inactive)	3.27 µM (inactive)	1.75 µM (inactive)	3.04 µM (inactive)	3.15 µM (inactive)	2.21 µM (inactive)	> 26.1 µM (inactive)	> 100 µM (inactive)	1.71 µM (inactive)	4.25 µM (inactive)	2.38 µM (inactive)	> 100 µM (inactive)	2.11 µM (inactive)	3.64 µM (inactive)	2.24 µM (inactive)	0.407 µM (active)
Clc1ccc(/C=N/C23CC4CC(CC(C4)C2)C3)cc1Cl		> 10 µM (inactive)	> 10 µM (inactive)	> 10 µM (inactive)	> 10 µM (inactive)	> 10 µM (inactive)	> 10 µM (inactive)	> 10 µM (inactive)	> 10 µM (inactive)	> 10 µM (inactive)	> 10 µM (inactive)	> 10 µM (inactive)	> 10 µM (inactive)	> 10 µM (inactive)	> 10 µM (inactive)	> 10 µM (inactive)	> 10 µM (inactive)	> 10 µM (inactive)	> 10 µM (inactive)
NC(Cc1cccc([N+](=O)[O-])c1)C(=O)O (centres undefined)	> 100 µM (inactive)	> 100 µM (inactive)	> 100 µM (inactive)	> 100 µM (inactive)	> 100 µM (inactive)	61.5 µM (inactive)	> 100 µM (inactive)	> 100 µM (inactive)	> 100 µM (inactive)		> 100 µM (inactive)	> 100 µM (inactive)	> 100 µM (inactive)	> 100 µM (inactive)	> 100 µM (inactive)	> 100 µM (inactive)	> 100 µM (inactive)	> 100 µM (inactive)	> 100 µM (inactive)
N#CSC#Cc1ccc(C#CSC#N)cc1	17.2 µM (inactive)	10.1 µM (inactive)	21.3 µM (inactive)	20.2 µM (inactive)	16.6 µM (inactive)	12.5 µM (inactive)	18.2 µM (inactive)	22.6 µM (inactive)	17.8 µM (inactive)		17.9 µM (inactive)	18.7 µM (inactive)	18.2 µM (inactive)		17.8 µM (inactive)	18.5 µM (inactive)	39.1 µM (inactive)	15.6 µM (inactive)	15.5 µM (inactive)
CC(C)(C)OC(=O)N1C(C2=COc3ccccc3O2)=COc2cccnc21	1.64 µM (inactive)		2.04 µM (inactive)	1.71 µM (inactive)	2.75 µM (inactive)	1.25 µM (inactive)	1.75 µM (inactive)	1.81 µM (inactive)	1.98 µM (inactive)	15.7 µM (inactive)	1.59 µM (inactive)	1.61 µM (inactive)	1.9 µM (inactive)	1.79 µM (inactive)	1.99 µM (inactive)	1.38 µM (inactive)	1.99 µM (inactive)	1.96 µM (inactive)	1.62 µM (inactive)
CC(=O)N1C=Cc2c(c(C)c3c([nH]c4ccccc43)c2C)C1		12.8 µM (inactive)	10.2 µM (inactive)	14.8 µM (inactive)	10.8 µM (inactive)	5.4 µM (inactive)	13.8 µM (inactive)	13.6 µM (inactive)	4.54 µM (inactive)		3.33 µM (inactive)	5.92 µM (inactive)	2.4 µM (inactive)	7.28 µM (inactive)	8.75 µM (inactive)	0.479 µM (active)	> 100 µM (inactive)	4.95 µM (inactive)	3.76 µM (inactive)
Cc1ccc(/C=C2\Cc3cccc(C)c3C2=O)c(C(=O)O)c1	17.3 µM (inactive)	36.9 µM (inactive)	> 100 µM (inactive)	> 100 µM (inactive)	> 100 µM (inactive)	17.3 µM (inactive)	71.1 µM (inactive)		74.3 µM (inactive)	> 100 µM (inactive)	62.7 µM (inactive)	> 100 µM (inactive)		> 100 µM (inactive)	> 100 µM (inactive)	> 100 µM (inactive)	99.8 µM (inactive)	99.5 µM (inactive)	96.6 µM (inactive)
C/C(=N/Nc1nc(C)cc(O)n1)C(=O)O	> 100 µM (inactive)	> 100 µM (inactive)	> 100 µM (inactive)	> 100 µM (inactive)	> 100 µM (inactive)		> 100 µM (inactive)	> 100 µM (inactive)	> 100 µM (inactive)	> 100 µM (inactive)	> 100 µM (inactive)	> 100 µM (inactive)	> 100 µM (inactive)	> 100 µM (inactive)	> 100 µM (inactive)	> 100 µM (inactive)	> 100 µM (inactive)	> 100 µM (inactive)	> 100 µM (inactive)
COc1cc(C)c2c(c1C=O)Oc1c(c(C)c(O)c3c1C(O)OC3=O)OC2=O (centres undefined) [STICTIC ACID]	29.1 µM (inactive)	> 10 µM (inactive)	14.5 µM (inactive)	31.2 µM (inactive)	> 100 µM (inactive)	99.3 µM (inactive)	20.2 µM (inactive)	49.5 µM (inactive)	> 100 µM (inactive)	26.6 µM (inactive)	35.2 µM (inactive)	26.5 µM (inactive)	28.3 µM (inactive)	37.4 µM (inactive)	17.5 µM (inactive)	32.6 µM (inactive)		34.4 µM (inactive)	23.1 µM (inactive)
CC(=O)c1ccc2c(c1)CC1(C2)Cc2cc3c(c(C(=O)O)c2C1)CCC3 (centres undefined)	40 µM (inactive)	81.8 µM (inactive)		> 100 µM (inactive)	> 100 µM (inactive)	22.6 µM (inactive)	44.6 µM (inactive)	> 100 µM (inactive)	37.9 µM (inactive)	61.5 µM (inactive)	> 100 µM (inactive)	> 100 µM (inactive)	53.1 µM (inactive)		> 100 µM (inactive)	> 100 µM (inactive)	72.4 µM (inactive)	> 100 µM (inactive)	> 100 µM (inactive)

From ChEMBL document CHEMBL1201862, “PubChem BioAssay data set” (2004)
